Data from PubChem BioAssay (NCI).
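GI50 = concentration required for 50% inhibition of growth. TGI is the concentration that stops growth completely.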

What was measured:
Assay in all cases: NCI-60 cell line screen, 384-well format
UACC-62 melanoma = test system: UACC-62 melanoma
COLO 205 colon = test system: COLO 205 colon
MOLT-4 leukemia = test system: MOLT-4 leukemia
HL-60(TB) leukemia = test system: HL-60(TB) leukemia
MDA-MB-231 breast = test system: MDA-MB-231 breast
NCI-H322M lung = test system: NCI-H322M lung
PC-3 prostate = test system: PC-3 prostate
RPMI-8226 leukemia = test system: RPMI-8226 leukemia
DU-145 prostate = test system: DU-145 prostate
A498 renal = test system: A498 renal
KM12 colon = test system: KM12 colon
HCT-15 colon = test system: HCT-15 colon
BT-549 breast = test system: BT-549 breast
HOP-92 NSCLC = test system: HOP-92 NSCLC
MALME-3M melanoma = test system: MALME-3M melanoma
ACHN renal = test system: ACHN renal
TK-10 renal = test system: TK-10 renal
SK-MEL-5 melanoma = test system: SK-MEL-5 melanoma
OVCAR-5 ovarian = test system: OVCAR-5 ovarian
NCI-H23 lung = test system: NCI-H23 lung
SF-295 CNS = test system: SF-295 CNS
OVCAR-3 ovarian = test system: OVCAR-3 ovarian
NCI-H226 lung = test system: NCI-H226 lung
NCI/ADR-RES ovarian = test system: NCI/ADR-RES ovarian
HS 578T breast = test system: HS 578T breast
HT29 colon = test system: HT29 colon
HCT-116 colon = test system: HCT-116 colon
SR leukemia = test system: SR leukemia
SF-268 CNS = test system: SF-268 CNS
OVCAR-8 ovarian = test system: OVCAR-8 ovarian
NCI-H522 lung = test system: NCI-H522 lung
SN12C renal = test system: SN12C renal
T-47D breast = test system: T-47D breast
U251 glioblastoma = test system: U251 glioblastoma
CAKI-1 renal = test system: CAKI-1 renal
LOX IMVI melanoma = test system: LOX IMVI melanoma
A549 NSCLC = test system: A549 NSCLC
M14 melanoma = test system: M14 melanoma
RXF 393 renal = test system: RXF 393 renal
SK-MEL-28 melanoma = test system: SK-MEL-28 melanoma
SNB-19 CNS = test system: SNB-19 CNS
HCC-2998 colon = test system: HCC-2998 colon
MDA-MB-468 breast = test system: MDA-MB-468 breast
HOP-62 NSCLC = test system: HOP-62 NSCLC
SF-539 CNS = test system: SF-539 CNS
IGROV1 ovarian = test system: IGROV1 ovarian
SK-OV-3 ovarian = test system: SK-OV-3 ovarian
MDA-MB-435 melanoma = test system: MDA-MB-435 melanoma
MCF7 breast = test system: MCF7 breast
SNB-75 CNS = test system: SNB-75 CNS
OVCAR-4 ovarian = test system: OVCAR-4 ovarian
UACC-257 melanoma = test system: UACC-257 melanoma
NCI-H460 NSCLC = test system: NCI-H460 NSCLC
EKVX NSCLC = test system: EKVX NSCLC

CN(C)Cc1c(C(=O)NCCOc2ccc(C(=O)NO)cc2)oc2ccccc12
GI50 (UACC-62 melanoma): 112 nM | TGI (UACC-62 melanoma): 256 nM | GI50 (COLO 205 colon): 158 nM | TGI (COLO 205 colon): 319 nM | GI50 (MOLT-4 leukemia): 42.2 nM | TGI (MOLT-4 leukemia): 143 nM | GI50 (HL-60(TB) leukemia): 56.9 nM | TGI (HL-60(TB) leukemia): 148 nM | GI50 (MDA-MB-231 breast): 248 nM | TGI (MDA-MB-231 breast): 811 nM | GI50 (NCI-H322M lung): 180 nM | TGI (NCI-H322M lung): 713 nM | GI50 (PC-3 prostate): 165 nM | TGI (PC-3 prostate): 439 nM | GI50 (RPMI-8226 leukemia): 11.9 nM | TGI (RPMI-8226 leukemia): 26.2 nM | GI50 (DU-145 prostate): 118 nM | TGI (DU-145 prostate): 320 nM | GI50 (A498 renal): 187 nM | TGI (A498 renal): 658 nM | GI50 (KM12 colon): 311 nM | TGI (KM12 colon): 1700 nM | GI50 (HCT-15 colon): 480 nM | TGI (HCT-15 colon): 2010 nM | GI50 (BT-549 breast): 264 nM | TGI (BT-549 breast): 1350 nM | GI50 (HOP-92 NSCLC): 310 nM | TGI (HOP-92 NSCLC): 1330 nM | GI50 (MALME-3M melanoma): 87.6 nM | TGI (MALME-3M melanoma): 330 nM | GI50 (ACHN renal): 221 nM | TGI (ACHN renal): 578 nM | GI50 (TK-10 renal): 184 nM | TGI (TK-10 renal): 475 nM | GI50 (SK-MEL-5 melanoma): 132 nM | TGI (SK-MEL-5 melanoma): 278 nM | GI50 (OVCAR-5 ovarian): 57.7 nM | TGI (OVCAR-5 ovarian): 212 nM | GI50 (NCI-H23 lung): 267 nM | TGI (NCI-H23 lung): 1370 nM | GI50 (SF-295 CNS): 161 nM | TGI (SF-295 CNS): 335 nM | GI50 (OVCAR-3 ovarian): 176 nM | TGI (OVCAR-3 ovarian): 626 nM | GI50 (NCI-H226 lung): 376 nM | TGI (NCI-H226 lung): 1600 nM | GI50 (NCI/ADR-RES ovarian): 387 nM | TGI (NCI/ADR-RES ovarian): 1840 nM | GI50 (HS 578T breast): 145 nM | TGI (HS 578T breast): 385 nM | GI50 (HT29 colon): 219 nM | TGI (HT29 colon): 943 nM | GI50 (HCT-116 colon): 92.3 nM | TGI (HCT-116 colon): 479 nM | GI50 (SR leukemia): 31.7 nM | TGI (SR leukemia): 136 nM | GI50 (SF-268 CNS): 197 nM | TGI (SF-268 CNS): 604 nM | GI50 (OVCAR-8 ovarian): 46.9 nM | TGI (OVCAR-8 ovarian): 1130 nM | GI50 (NCI-H522 lung): 71.3 nM | TGI (NCI-H522 lung): 571 nM | GI50 (SN12C renal): 130 nM | TGI (SN12C renal): 392 nM | GI50 (T-47D breast): 136 nM | TGI (T-47D breast): 300 nM | GI50 (U251 glioblastoma): 155 nM | TGI (U251 glioblastoma): 332 nM | GI50 (CAKI-1 renal): 316 nM | TGI (CAKI-1 renal): 1100 nM | GI50 (LOX IMVI melanoma): 170 nM | TGI (LOX IMVI melanoma): 320 nM | GI50 (A549 NSCLC): 313 nM | TGI (A549 NSCLC): 1240 nM | GI50 (M14 melanoma): 250 nM | TGI (M14 melanoma): 1080 nM | GI50 (RXF 393 renal): 291 nM | TGI (RXF 393 renal): 1130 nM | GI50 (SK-MEL-28 melanoma): 171 nM | TGI (SK-MEL-28 melanoma): 561 nM | GI50 (SNB-19 CNS): 322 nM | TGI (SNB-19 CNS): 1120 nM | GI50 (HCC-2998 colon): 109 nM | TGI (HCC-2998 colon): 362 nM | GI50 (MDA-MB-468 breast): 130 nM | TGI (MDA-MB-468 breast): 457 nM | GI50 (HOP-62 NSCLC): 170 nM | TGI (HOP-62 NSCLC): 690 nM | GI50 (SF-539 CNS): 285 nM | TGI (SF-539 CNS): 2100 nM | GI50 (IGROV1 ovarian): 111 nM | TGI (IGROV1 ovarian): 324 nM | GI50 (SK-OV-3 ovarian): 175 nM | TGI (SK-OV-3 ovarian): 745 nM | GI50 (MDA-MB-435 melanoma): 201 nM | TGI (MDA-MB-435 melanoma): 401 nM | GI50 (MCF7 breast): 133 nM | TGI (MCF7 breast): 510 nM | GI50 (SNB-75 CNS): 310 nM | TGI (SNB-75 CNS): 2820 nM | GI50 (OVCAR-4 ovarian): 213 nM | TGI (OVCAR-4 ovarian): 495 nM | GI50 (UACC-257 melanoma): 43.2 nM | TGI (UACC-257 melanoma): 194 nM | GI50 (NCI-H460 NSCLC): 135 nM | TGI (NCI-H460 NSCLC): 1040 nM | GI50 (EKVX NSCLC): 403 nM | TGI (EKVX NSCLC): 3110 nM
